From article PMC6823370, “A novel nucleoside rescue metabolic pathway may be responsible for therapeutic effect of orally administered cordycepin” (Scientific Reports, 2019)
Where two headings read alike, the source gives them in different places.

Columns and labels:
[1] = Liver microsomal stability, human liver microsomes; assay type: in vitro ADME; conditions: human liver microsome, pentostatin −; for CLint scaled at 1 µM: human, liver microsomes
Procedure: (§1) Human and rat liver microsomes were used in the experiment following previously reported methods[49],[50]. Microsomes were used at 0.5 mg protein/mL and cordycepin was tested at 1 µM. […] The reaction mixture was incubated in the shaking incubator at 37 °C for 30 min with sampling every 10 min. The results of intrinsic clearance and the fraction that escapes hepatic metabolism (by both well-stirred and parallel-tube models) were calculated by previously reported equations and physiological parameters[50]–[52]. The experiments were performed in triplicates.
(§2) Samples from studies of plasma stability, protein binding, biorelevant solubility and liver microsomal stability were subjected to liquid-liquid extraction and HPLC-UV analysis. To 100 µL of sample, internal standard (2′-deoxyadenosine) was spiked at 10 µg/mL and 300 µL of 0.1 M NaOH was added. Extraction solvent (3 mL) of ethyl acetate-isopropyl alcohol (85:15, v/v) was added and vortex-mixed for 10 min. Samples were then centrifuged at 1160 g for 5 min and the supernatant was transferred and dried under N2 gas. Dried samples were reconstituted with 100 uL of deionised distilled water (DDW) and 40 µL was injected into the HPLC-UV. The HPLC-UV setup was adopted from a validated method[22] with addition of a gradient scheme to elute the impurities from samples. Waters Alliance 2695 module with Waters 996 PDA detector was used for the HPLC-UV system with Capcell Pak C18 3 µm, 4.6 × 150 mm as the stationary phase. Mobile phase was a mixture of acetonitrile (A) and DDW (B) at flow rate 0.8 mL/min with a gradient scheme of the following: 0–9 min, B 94%; 9–14 min, B decreased to 20%; 14–24 min, B 20%; 24–26 min, B increased to 94%; and 26–35 min, B 94%. Calibration curves were constructed at a range of 10 – 20000 ng/mL and chromatograms were obtained at 259 nm of wavelength.

[2] = Liver microsomal stability, rat liver microsomes; assay type: in vitro ADME; conditions: for Fh, parallel-tube model / Fh, well-stirred model / CLint scaled at 1 µM: rat liver microsome, pentostatin −; for CLint scaled at 1 µM: rat, liver microsomes
Procedure: as §1, §2

[3] = Biorelevant solubility (FaSSGF, FaSSIF, FeSSIF); assay type: physicochemical; conditions: thermodynamic from solid, compared with reported water solubility
Procedure: The three biorelevant fluids of fasted state simulated gastric fluid (FaSSGF, pH 1.6), fasted state simulated intestinal fluid (FaSSIF, pH 6.5) and fed state simulated intestinal fluid (FeSSIF, pH 5.0) were prepared according to previously reported compositions. The test mixtures containing biorelevant fluids and excessive amount of cordycepin were shaken at 250 rpm, 37 °C for 2 h in the shaking incubator. The mixtures were then filtered using Costar Spin-X Centrifuge Tubes (Fisher Scientific, Loughborough, UK) at 2400 g for 5 min. The filtrate was subjected to analysis by HPLC-UV. The experiments were conducted in quadruplicates.
as §2

[4] = text summary over rat and human liver microsomes, without pentostatin

With `Nc1ncnc2c1ncn2[C@@H]1O[C@H](CO)C[C@H]1O` [cordycepin, 3′-deoxyadenosine] the “Fh, parallel-tube model” value ([1]; NADPH +) was 0.0 ± 0.0%, the “Fh, well-stirred model” value ([1]; NADPH +) was 10.3 ± 0.7% and the “Fh, parallel-tube model” value ([1]; NADPH −) was 0.0 ± 0.0%. For the same compound, the “Fh, well-stirred model” value ([1]; NADPH −) was 10.4 ± 0.3%, the CLint scaled at 1 µM ([1]; NADPH +) was 181 ± 13.9 mL/min/kg and the CLint scaled at 1 µM ([1]; NADPH −) was 179 ± 5.3 mL/min/kg. The “Fh, parallel-tube model” value ([2]; NADPH +) was 0.1 ± 0.0%, the “Fh, well-stirred model” value ([2]; NADPH +) was 12.4 ± 0.9% and the “Fh, parallel-tube model” value ([2]; NADPH −) was 0.1 ± 0.1%. The “Fh, well-stirred model” value ([2]; NADPH −) was 12.5 ± 1.5%, the CLint scaled at 1 µM ([2]; NADPH +) was 392 ± 31.3 mL/min/kg and the CLint scaled at 1 µM ([2]; NADPH −) was 390 ± 51.4 mL/min/kg. For the same compound, the “Fh calculated from CLint, parallel-tube model” value [2, 4] was about 0%, the “Fh calculated from CLint, well-stirred model” value [2, 4] was 10–13% and the solubility at 2 h ([3]; FaSSGF, fassgf or other biorelevant, pH 1.6, 37 °C, read-out: solubility in FaSSGF) was over 5000 µg/mL. It also gave a solubility at 2 h ([3]; FaSSIF, pH 6.5, 37 °C, read-out: solubility in FaSSIF) of over 5000 µg/mL and a solubility at 2 h ([3]; FeSSIF, pH 5.0, 37 °C, read-out: solubility in FeSSIF) of over 5000 µg/mL.
